Results as given in patent US20230064976A1, “AMORPHOUS FORM OR CRYSTALLINE FORM OF 2-INDOLINOLINOLOLYLSPIRONONE COMPOUNDS OR THEIR SALTS, SOLVENT COMPLEXES” (ASCENTAGE PHARMA (SUZHOU) CO., LTD., priority 2020, published 2023).

Legend:
Assay type in all cases: physicochemical
[1] = Dynamic Vapour Sorption (DVS) hygroscopicity test; settings: for Weight Gain (80% RH): DVS
Method: The instruments used and their parameters are as follows: XPRD—X-ray powder diffraction, using Bruker D8 Advance Diffractometer to characterize solids. Copper target wavelength is 1.54 Å Kα radiation (40 kV, 40 mA), 0-20 goniometer, Mo monochromator, Lynxeye detector, detection angle is 3-40° 2θ/3-30° 20, step size It is 0.02° 20, the speed is 0.2 s/step, and the detection sample weight is >2 mg. TGA—Thermo gravimetric analysis, using TA Instruments Q500 TGA, the detection sample size is 1 mg-10 mg, the common detection method is Hi-Res sensitivity 3.0, Ramp 10.00° C./min, res 5.0 to 150.00° C., Ramp 10.00° C./min to 350° C. DSC—differential scanning calorimetry analysis, using TA Instruments Q200 DSC, the detection sample weight is 0.5 mg-5 mg, the gas flow rate is 40 mL/min, the common detection method is Equilibrate, 20° C., Ramp 10° C./min to 280° C.-300° C. DVS—Dynamic Vapour Sorption analysis, the detection sample weight is 1 mg-10 mg, the gas flow rate is 10 mL/min, the common detection method is equilibrium at 25° C., humidity 0%, isothermal for 90 minutes, if the weight percentage is less than 0.0100, the next isothermal test is aborted for 15.00 minutes, and the 10% step humidity is 80.00% every 90 minutes. If the weight percentage is less than 0.0100, the next isothermal test is aborted for 15.00 minutes, and the step humidity is 10% to 0.00% every 90 minutes. For the above identification and characterization results of XPRD, TGA, DSC, and DVS, please refer to FIG. 1-82, Table 1-15 and related description.
Take about 10 mg of crystalline form XI sample for Dynamic Vapour Sorption (DVS) test. The conclusions are described in Table 23 below.
About 10 mg of amorphous form XVI sample was taken for dynamic moisture adsorption (DVS) test. The conclusions are described in Table 25 below:
Dynamic water sorption (DVS) was performed on hydrobromide and maleate crystalline samples.

[2] = Stability testing of amorphous form XVI (60° C., 90% RH, light)
Method: The amorphous XVI sample was placed at 60° C., with high humidity 90% RH, under the light condition (light condition: 4500 Lux), and sampled on Day 0/5/10 to investigate its content, related substances and crystal form.

[3] = Competitive experiment of crystalline form X and crystalline form XI (suspension stirring, XRD); settings: acetone/n-heptane, dichloromethane/n-heptane, acetone/water 1/3 v:v; room temperature 1-3 days
Text: Take an equal amount of crystalline form X and crystalline form XI samples, mix them uniformly, and sample for XRD detection.

[4] = Stability test of crystalline form XI (different temperature and humidity)
Text: Place the sample of Form XI under high temperature, high humidity 75% RH conditions, and sample on Day 0, Day 5, Day 10 and Day 30 to investigate its content, related substances and crystal forms.

[5] = Stability test for salt form screening (maleate crystalline form V; HPLC, XRD)
Method: Weigh 30 mg of compound (maleate crystalline form V) into a 8 mL glass bottle, then place it at high temperature (60° C., open), high humidity (room temperature/75% RH, open) and light (room temperature, white light: 6980 lux, ultraviolet 282 μW/cm2), take samples on Day 5/10/30 respectively for testing (HPLC, XRD).

[6] = Day 5—light condition (4500 Lux)
[7] = Day 10—light condition (4500 Lux)

SMILES: CCN1C(C(=O)NC23CCC(C(=O)O)(CC2)CC3)C(c2cccc(Cl)c2F)C2(C(=O)Nc3cc(Cl)ccc32)C12CCCCC2 (stereo not shown) [Form XVI]
- XRPD before and after DVS [1]: Unchanged
- water absorption during storage (conclusion from DVS) [1]: not easy to absorb water
- DVS weight change of 0% RH-80% RH [1]: 2.5±0.5%
- Weight Gain (80% RH) [1]: 2.32%
- Total impurity content (%) ([2]; Day 0): 0.38%
- XPRD ([2]; Day 0): Amorphous
- content (%) ([2]; Day 0): 99.4%
- Total impurity content (%) ([2]; Day 5—60° C.): 0.48%
- content (%) ([2]; Day 5—60° C.): 101.7%
- Total impurity content (%) ([2]; Day 5—90% RH): 0.40%
- content (%) ([2]; Day 5—90% RH): 102.1%
- Total impurity content (%) [2, 6]: 0.44%
- content (%) [2, 6]: 102.4%
- Total impurity content (%) ([2]; Day 10—60° C.): 0.54%
- XPRD ([2]; Day 10—60° C.): Amorphous
- content (%) ([2]; Day 10—60° C.): 99.0%
- Total impurity content (%) ([2]; Day 10—90% RH): 0.40%
- XPRD ([2]; Day 10—90% RH): Amorphous
- content (%) ([2]; Day 10—90% RH): 101.1%
- Total impurity content (%) [2, 7]: 0.57%
- XPRD [2, 7]: Amorphous
- content (%) [2, 7]: 100.4%

SMILES: CCN1C(C(=O)NC23CCC(C(=O)O)(CC2)CC3)C(c2cccc(Cl)c2F)C2(C(=O)Nc3cc(Cl)ccc32)C12CCCCC2 (stereo not shown) [crystalline form X]
- DVS water absorption 0% RH-60% RH ([1]; 0% RH-60% RH): < 0.1%
- DVS weight change 60% RH-80% RH ([1]; 60% RH-80% RH): 1.6±0.2%
- form after stirring mixed sample of form X and form XI (XRD) [3]: converted to crystalline form XI

SMILES: CCN1C(C(=O)NC23CCC(C(=O)O)(CC2)CC3)C(c2cccc(Cl)c2F)C2(C(=O)Nc3cc(Cl)ccc32)C12CCCCC2.O (stereo not shown) [Form XI]
- XRPD before and after DVS [1]: Unchanged
- water absorption during storage (conclusion from DVS) [1]: not easy to absorb water
- DVS weight change of 0% RH-80% RH [1]: 0.17±0.05%
- Weight Gain (80% RH) [1]: 0.01%
- content and purity (summary) ([4]; 5 days, 10 days and 30 days, high temperature and high humidity): almost unchanged
- Total impurity content (%) ([4]; Day 0): 0.31%
- XPRD ([4]; Day 0): Form XI
- content (%) ([4]; Day 0): 99.5%
- Total impurity content (%) ([4]; Day 5—40° C.): 0.21%
- content (%) ([4]; Day 5—40° C.): 99.6%
- Total impurity content (%) ([4]; Day 5—60° C.): 0.15%
- content (%) ([4]; Day 5—60° C.): 99.1%
- Total impurity content (%) ([4]; Day 5—75% RH): 0.16%
- content (%) ([4]; Day 5—75% RH): 99.1%
- Total impurity content (%) ([4]; Day 10—40° C.): 0.25%
- XPRD ([4]; Day 10—40° C.): Form XI
- content (%) ([4]; Day 10—40° C.): 99.1%
- Total impurity content (%) ([4]; Day 10—60° C.): 0.25%
- XPRD ([4]; Day 10—60° C.): Form XI
- content (%) ([4]; Day 10—60° C.): 100.1%
- Total impurity content (%) ([4]; Day 10—75% RH): 0.24%
- XPRD ([4]; Day 10—75% RH): Form XI
- content (%) ([4]; Day 10—75% RH): 99.3%
- Total impurity content (%) ([4]; Day 30—40° C.): 0.33%
- XPRD ([4]; Day 30—40° C.): Form XI
- content (%) ([4]; Day 30—40° C.): 98.9%
- Total impurity content (%) ([4]; Day 30—75% RH): 0.32%
- XPRD ([4]; Day 30—75% RH): Form XI
- content (%) ([4]; Day 30—75% RH): 100.5%

SMILES: CCN1C(C(=O)NC23CCC(C(=O)O)(CC2)CC3)C(c2cccc(Cl)c2F)C2(C(=O)Nc3cc(Cl)ccc32)C12CCCCC2.O=C(O)C=CC(=O)O (stereo not shown) [maleate crystalline form V]
- XRPD before and after DVS [1]: Unchanged
- Weight Gain (80% RH) [1]: 1.2% (slightly
- Total impurity content (%) ([5]; Day 0): 1.20%
- XPRD ([5]; Day 0): Form V
- content and purity (summary) ([5]; Day 5/10/30, high temperature, high humidity and light): almost unchanged
- Total impurity content (%) ([5]; Day 5—60° C.): 1.20%
- XPRD ([5]; Day 5—60° C.): Form V
- Total impurity content (%) ([5]; Day 5—75% RH): 1.10%
- XPRD ([5]; Day 5—75% RH): Form V
- Total impurity content (%) ([5]; Day 5—light): 1.10%
- XPRD ([5]; Day 5—light): Form V
- Total impurity content (%) ([5]; Day 10—60° C.): 1.20%
- XPRD ([5]; Day 10—60° C.): Form V
- Total impurity content (%) ([5]; Day 10—75% RH): 1.20%
- XPRD ([5]; Day 10—75% RH): Form V
- Total impurity content (%) ([5]; Day 10—light): 1.10%
- XPRD ([5]; Day 10—light): Form V
- Total impurity content (%) ([5]; Day 30—60° C.): 1.20%
- XPRD ([5]; Day 30—60° C.): Form V
- Total impurity content (%) ([5]; Day 30—75% RH): 1.10%
- XPRD ([5]; Day 30—75% RH): Form V

SMILES: Br.CCN1C(C(=O)NC23CCC(C(=O)O)(CC2)CC3)C(c2cccc(Cl)c2F)C2(C(=O)Nc3cc(Cl)ccc32)C12CCCCC2 (stereo not shown) [hydrobromide crystalline form VI]
- Weight Gain (80% RH) [1]: 5.1% (hygroscopic)
